Biological target: T1, human TLR7 (hTLR7) (Homo sapiens, UniProt Q9NYK1)
T1 construct: expressed in transfected cells
T1 sequence (Q9NYK1 27-1049): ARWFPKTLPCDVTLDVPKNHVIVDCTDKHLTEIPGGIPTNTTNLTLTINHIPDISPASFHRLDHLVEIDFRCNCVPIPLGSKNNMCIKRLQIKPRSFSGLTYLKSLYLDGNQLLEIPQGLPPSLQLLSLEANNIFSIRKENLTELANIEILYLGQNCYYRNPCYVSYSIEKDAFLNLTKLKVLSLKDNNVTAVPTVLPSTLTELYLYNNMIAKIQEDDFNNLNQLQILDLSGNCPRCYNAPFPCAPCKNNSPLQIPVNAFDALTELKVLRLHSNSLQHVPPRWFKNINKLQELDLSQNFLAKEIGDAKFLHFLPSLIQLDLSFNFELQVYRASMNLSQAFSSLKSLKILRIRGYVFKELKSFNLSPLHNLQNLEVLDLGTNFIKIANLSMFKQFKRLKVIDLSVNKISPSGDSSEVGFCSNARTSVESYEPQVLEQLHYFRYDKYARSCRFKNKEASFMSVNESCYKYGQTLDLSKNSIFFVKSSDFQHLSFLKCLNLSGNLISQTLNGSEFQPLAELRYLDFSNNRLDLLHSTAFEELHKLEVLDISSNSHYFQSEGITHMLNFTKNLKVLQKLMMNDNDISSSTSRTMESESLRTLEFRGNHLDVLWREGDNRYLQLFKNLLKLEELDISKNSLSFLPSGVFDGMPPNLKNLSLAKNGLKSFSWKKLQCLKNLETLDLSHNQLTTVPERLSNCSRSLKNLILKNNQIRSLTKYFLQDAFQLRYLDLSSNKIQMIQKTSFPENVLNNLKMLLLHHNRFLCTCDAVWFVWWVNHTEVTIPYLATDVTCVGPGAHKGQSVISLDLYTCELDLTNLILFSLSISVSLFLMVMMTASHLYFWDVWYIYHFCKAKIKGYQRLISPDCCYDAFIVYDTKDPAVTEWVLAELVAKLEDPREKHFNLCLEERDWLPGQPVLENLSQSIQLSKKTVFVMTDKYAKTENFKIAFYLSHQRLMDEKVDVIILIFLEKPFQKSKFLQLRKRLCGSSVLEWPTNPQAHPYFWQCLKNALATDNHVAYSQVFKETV
Assay: Antagonist screen, hTLR7-NFκB-293 cells, NF-κB-luciferase reporter, with EC50 of R848
Type: cell-based
Settings: compound at 0.5, 5, 50 μg/ml; EC50 concentration of R848; 16 h; NF-κB-luciferase
Method: The method is described in greater detail as follows. The cells for each individual cell clone (hTLR3-NFκB-293, hTLR7-NFκB-293, hTLR8-NFκB-293 and hTLR9-NFκB-293) were counted and seeded one day before the stimulation at 1.5×10^4 cells per well in 96-well cell culture plates. To become adherent the cells were incubated after seeding overnight at 37° C. in 5% CO2 humidified air.
The screen for each compound was performed at the same time for all of the receptors TLR3, TLR7, TLR8 and TLR9. Up to fifteen test compounds, each assayed in duplicate at each of three different final concentrations (0.5 μg/ml, 5 μg/ml, and 50 μg/ml), were used for 16 h cell stimulation on a single multiwell culture plate. A 4× final concentration master plate was created to prepare the different test compounds before they were added to the cells.
Controls were added as duplicates individually for each cell clone on the cell culture plate. Positive controls were used as follows (final concentrations): 50 μg/ml poly(I:C) for hTLR3-NFκB-293; 8 μM resiquimod (R848) for hTLR7-NFκB-293; 30 μM R848 for hTLR8-NFκB-293; and 2.5 μM CpG-ODN 2006 for hTLR9-NFκB-293. Media alone was used as negative control. After addition of controls and small molecules, the cell clones were additionally stimulated with the EC50 concentration of the appropriate receptor-specific ligand.
The mean value of wells H2 and H5 (each with cells and EC50 concentration of the appropriate receptor-specific ligand) divided by the mean of wells H3 and H6 (each with cells alone) yielded the baseline response (i.e., fold induction of luciferase activity) to EC50 concentration of the appropriate receptor-specific ligand.
After 16 h stimulation the supernatant was removed and the cells treated with lysis buffer and stored at −80° C. before measuring.
For each screen result a graphical documentation was performed.
The baseline result (measured with addition of the EC50 concentration of the receptor-specific ligand) for each cell culture plate was measured as described above. Antagonistic effects were measured by down regulation compared to the baseline. Antagonists were scored as follows: • 13: compounds for which there was clear down regulation at 0.5 μg/ml, 5 μg/ml, and 50 μg/ml; • 12: compounds for which there was clear down regulation at 5 μg/ml and 50 μg/ml; • 11: compounds for which there was clear down regulation only at 50 μg/ml; • —: compounds for which there was no clear down regulation even at 50 μg/ml. Agonists
Results were expressed as fold induction over baseline luciferase activity measured in the absence of R848. […] Additional screening was performed in like manner using additional small molecules selected from another library or specifically prepared for this purpose. Scoring is reported as above but as applied to TLR7.

Structure (SMILES) | hTLR7 (inhibitory effect, antagonist score)
CC1NCCc2c1[nH]c1ccccc21.Cl (racemic) [compound 619, Eleagnine hydrochloride (R,S)] | — (compounds for which there was no clear down regulation even at 50 μg/ml)
O=C1c2c(O)cccc2Cc2cccc(O)c21 [compound 43, Anthralin] | — (compounds for which there was no clear down regulation even at 50 μg/ml)
CN(C)CCCN1c2ccccc2Sc2ccc(C(F)(F)F)cc21.Cl [compound 53, Triflupromazinehydrochloride] | 11 (compounds for which there was clear down regulation only at 50 μg/ml)
CN(C)CCCN1c2ccccc2Sc2ccc(Cl)cc21.Cl [compound 64, Chlorpromazinehydrochloride] | 11 (compounds for which there was clear down regulation only at 50 μg/ml)
CN(C)CCC=C1c2ccccc2CCc2ccccc21.Cl [compound 74, Amitryptilinehydrochloride] | 11 (compounds for which there was clear down regulation only at 50 μg/ml)
OC(c1ccccc1)(c1ccccc1)C1CCNCC1 [compound 93, Azacyclonol] | — (compounds for which there was no clear down regulation even at 50 μg/ml)
CN1Cc2c(N)cccc2C(c2ccccc2)C1.O=C(O)/C=C\C(=O)O (centres unmarked) [compound 108, Nomifensine maleate] | — (compounds for which there was no clear down regulation even at 50 μg/ml)
C[C@]12N[C@H](Cc3ccccc31)c1ccccc12.O=C(O)/C=C\C(=O)O [compound 109, Dizocilpine maleate] | — (compounds for which there was no clear down regulation even at 50 μg/ml)
OCCN1CCN(CCCN2c3ccccc3Sc3ccc(Cl)cc32)CC1 [compound 125, Perphenazine] | — (compounds for which there was no clear down regulation even at 50 μg/ml)
CN1CCN(CCCN2c3ccccc3Sc3ccc(S(=O)(=O)N(C)C)cc32)CC1.CS(=O)(=O)O.CS(=O)(=O)O [compound 149, Thioproperasinedimesylate] | — (compounds for which there was no clear down regulation even at 50 μg/ml)
Clc1ccccc1C(c1ccccc1)(c1ccccc1)n1ccnc1 [compound 267, Clotrimazole] | 12 (compounds for which there was clear down regulation at 5 μg/ml and 50 μg/ml)
CC(NCCC(c1ccccc1)c1ccccc1)c1ccccc1.Cl (centres unmarked) [compound 270, Fendiline hydrochloride] | 11 (compounds for which there was clear down regulation only at 50 μg/ml)
CN1CCC(=C2c3ccccc3Sc3ccccc32)CC1.O=C(O)/C=C\C(=O)O [compound 294, Pimethixene maleate] | 11 (compounds for which there was clear down regulation only at 50 μg/ml)
O=c1[nH]c2ccccc2n1C1CCN(CCCC(c2ccc(F)cc2)c2ccc(F)cc2)CC1 [compound 308, Pimozide] | 11 (compounds for which there was clear down regulation only at 50 μg/ml)
Cl.Cl.OCCN1CCN(CC/C=C2/c3ccccc3Sc3ccc(C(F)(F)F)cc32)CC1 [compound 340, Flupentixoldihydrochloride cis-(Z)] | 11 (compounds for which there was clear down regulation only at 50 μg/ml)
CNCCCN1c2ccccc2CCc2ccccc21.Cl [compound 343, Desipraminehydrochloride] | 12 (compounds for which there was clear down regulation at 5 μg/ml and 50 μg/ml)
CN(C)CC/C=C1/c2ccccc2Sc2ccc(Cl)cc21.Cl [compound 348, Chlorprothixenehydrochloride] | 11 (compounds for which there was clear down regulation only at 50 μg/ml)
Cc1cccc(C)c1NC(=O)CN1CCN(CCCC(c2ccc(F)cc2)c2ccc(F)cc2)CC1 [compound 381, Lidoflazine] | 11 (compounds for which there was clear down regulation only at 50 μg/ml)
Cl.Cl.Fc1ccc(C(OCCN2CCN(CCCc3ccccc3)CC2)c2ccc(F)cc2)cc1 [compound 386, GBR 12909hydrochloride] | 11 (compounds for which there was clear down regulation only at 50 μg/ml)
Nc1cccc2c1C(=O)c1cccc(N)c1C2=O [compound 413, Anthraquinone,1,5-diamino] | — (compounds for which there was no clear down regulation even at 50 μg/ml)
CN1CCC2C(C1)c1ccccc1N2Cc1ccccc1 (centres unmarked) [compound 455, Mebhydroline 1,5 naphtalenedisulfonate] | — (compounds for which there was no clear down regulation even at 50 μg/ml)
Cc1cccc(CN2CCN(C(c3ccccc3)c3ccc(Cl)cc3)CC2)c1.Cl.Cl (centres unmarked) [compound 457, Meclozinedihydrochioride] | — (compounds for which there was no clear down regulation even at 50 μg/ml)
c1ccc2c(c1)[nH]c1cnccc12 [compound 470, norharman] | 11 (compounds for which there was clear down regulation only at 50 μg/ml)
CN(C)CC/C=C1/c2ccccc2CSc2ccccc21.Cl [compound 488, Dosulepin hydrochloride] | — (compounds for which there was no clear down regulation even at 50 μg/ml)
CN1CCN(C(c2ccccc2)c2ccccc2)CC1.Cl [compound 510, Cyclizine hydrochloride] | — (compounds for which there was no clear down regulation even at 50 μg/ml)
CN1CCCCC1CCN1c2ccccc2Sc2ccc([S+](C)[O-])cc21.O=S(=O)(O)c1ccccc1 (centres unmarked) [compound 529, Mesoridazine besylate] | — (compounds for which there was no clear down regulation even at 50 μg/ml)
CCOC(=O)Oc1c(OC)cc(C(=O)O[C@@H]2C[C@@H]3CN4CCc5c([nH]c6cc(OC)ccc56)[C@H]4C[C@@H]3[C@H](C(=O)OC)[C@H]2OC)cc1OC [compound 564, Syrosingopine] | 11 (compounds for which there was clear down regulation only at 50 μg/ml)
COC(=O)[C@H]1[C@H]2C[C@@H]3c4[nH]c5cc(OC)ccc5c4CCN3C[C@H]2C[C@@H](OC(=O)/C=C/c2cc(OC)c(OC)c(OC)c2)[C@@H]1OC [compound 568, Rescinnamin] | — (compounds for which there was no clear down regulation even at 50 μg/ml)
CC(=O)c1ccc2c(c1)N(CCCN(C)C)c1ccccc1S2.O=C(O)/C=C\C(=O)O [compound 576, Acetopromazinemaleate salt] | — (compounds for which there was no clear down regulation even at 50 μg/ml)
